From patent publication US7767659B2, “Synthesis of naturally occurring ecteinascidins and related compounds” (Pharma Mar, S.A., priority 2002, dated 2010)
Read-outs that look alike come from different tables or passages of the source.

How the values were obtained:
SK-BR-3 = assay: Inhibition of cells growth by colorimetric assay (SRB); conditions: Homo sapiens, SK-BR-3, 48 h
Outline: (§1)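 Colorimetric SRB read (490 nm) on triplicate wells after 48 h at 37 °C, 5% CO2. Dose range 10 to 10^−8 μg/ml; 5×10^3 cells/well pre-attached 18 h.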

HeLa-APL = assay: as above; conditions: Homo sapiens, 48 h
Outline: as §1

DU-145 = assay: as above; conditions: Homo sapiens, DU-145, 48 h
Outline: as §1

SK-MEL-28 = assay: as above; conditions: Homo sapiens, SK-MEL-28, 48 h
Outline: as §1

PANC-1 = assay: as above; conditions: Homo sapiens, PANC-1, 48 h
Outline: as §1

IGROV-ET = assay: as above; conditions: Homo sapiens, 48 h
Outline: as §1

IGROV-1 = assay: as above; conditions: Homo sapiens, IGROV-1, 48 h
Outline: as §1

LoVo-Dox = assay: as above; conditions: Homo sapiens, 48 h
Outline: as §1

HeLa = assay: as above; conditions: Homo sapiens, HeLa, 48 h
Outline: as §1

LNCaP = assay: as above; conditions: Homo sapiens, LNCaP, 48 h
Outline: as §1

K-562 = assay: as above; conditions: Homo sapiens, K562, 48 h
Outline: as §1

A-549 = assay: cells; conditions: Homo sapiens, A549, 48 h
Outline: as §1

LoVo = assay: cells; conditions: Homo sapiens, LoVo, 48 h
Outline: as §1

HT-29 = assay: cells; conditions: Homo sapiens, HT-29, 48 h
Outline: as §1

SMILES: CCCCCCCCCCCCCCCC(=O)NC1CS[C@@H]2c3c(OC(C)=O)c(C)c4c(c3[C@H](COC1=O)N1C2[C@@H]2N[C@@H](Cc3cc(C)c(OC)c(O)c32)[C@@H]1C#N)OCO4 (stereo partly drawn) [compound 32]
- GI50 (SK-BR-3; read-out: GI50 SK-BR3): 0.263 µM
- CC50 (SK-BR-3; read-out: LC50 SK-BR3): 7.52 µM
- IC (TGI) (SK-BR-3; read-out: TGI SK-BR3): 1.66 µM
- GI50 (HeLa-APL; read-out: GI50 HELA-APL): 0.0339 µM
- CC50 (HeLa-APL; read-out: LC50 HELA-APL): 0.108 µM
- IC (TGI) (HeLa-APL; read-out: TGI HELA-APL): 0.0605 µM
- GI50 (DU-145; read-out: GI50 DU145): 2.48 µM
- CC50 (DU-145; read-out: LC50 DU145): 9.39 µM
- IC (TGI) (DU-145; read-out: TGI DU145): 4.83 µM
- GI50 (SK-MEL-28; read-out: GI50 MEL-28): 2.41 µM
- CC50 (SK-MEL-28; read-out: LC50 MEL-28): 7.13 µM
- IC (TGI) (SK-MEL-28; read-out: TGI MEL-28): 4.14 µM
- GI50 (PANC-1; read-out: GI50 PANC-1): 2.56 µM
- CC50 (PANC-1; read-out: LC50 PANC-1): 8.79 µM
- IC (TGI) (PANC-1; read-out: TGI PANC-1): 4.75 µM
- GI50 (IGROV-ET; read-out: GI50 IGROV-ET): 2.85 µM
- CC50 (IGROV-ET; read-out: LC50 IGROV-ET): 9.67 µM
- IC (TGI) (IGROV-ET; read-out: TGI IGROV-ET): 5.24 µM
- GI50 (IGROV-1; read-out: GI50 IGROV): 1.97 µM
- CC50 (IGROV-1; read-out: LC50 IGROV): 7.74 µM
- IC (TGI) (IGROV-1; read-out: TGI IGROV): 3.91 µM
- GI50 (LoVo-Dox; read-out: GI50 LOVO-DOX): 0.802 µM
- CC50 (LoVo-Dox; read-out: LC50 LOVO-DOX): 6.76 µM
- IC (TGI) (LoVo-Dox; read-out: TGI LOVO-DOX): 2.48 µM
- GI50 (HeLa; read-out: GI50 HELA): 0.253 µM
- CC50 (HeLa; read-out: LC50 HELA): 0.689 µM
- IC (TGI) (HeLa; read-out: TGI HELA): 0.418 µM
- GI50 (LNCaP; read-out: GI50 LNCAP): 1.77 µM
- CC50 (LNCaP; read-out: LC50 LNCAP): 6.41 µM
- IC (TGI) (LNCaP; read-out: TGI LNCAP): 3.36 µM
- GI50 (K-562; read-out: GI50 K562): 0.694 µM
- CC50 (K-562; read-out: LC50 K562): 6.81 µM
- IC (TGI) (K-562; read-out: TGI K562): 2.2 µM
- GI50 (A-549; read-out: GI50 A549): 2.38 µM
- CC50 (A-549; read-out: LC50 A549): 7.7 µM
- IC (TGI) (A-549; read-out: TGI A549): 4.29 µM
- GI50 (LoVo; read-out: GI50 LOVO): 1.89 µM
- CC50 (LoVo; read-out: LC50 LOVO): 7.39 µM
- IC (TGI) (LoVo; read-out: TGI LOVO): 3.76 µM
- GI50 (HT-29; read-out: GI50 HT29): 3.48 µM
- CC50 (HT-29; read-out: LC50 HT29): 10.7 µM
- IC (TGI) (HT-29; read-out: TGI HT29): 6.1 µM

SMILES: C=CCN1[C@@H]2c3c(cc(C)c(OC)c3O)C[C@H]1[C@H](C#N)N1C2[C@@H]2SC[C@]3(NCCc4c3[nH]c3ccc(C)cc43)C(=O)OC[C@H]1c1c3c(c(C)c(OC(C)=O)c12)OCO3 (stereo partly drawn) [compound 58]
- GI50 (SK-BR-3; read-out: SK-BR3 GI50): 0.0209 µM
- CC50 (SK-BR-3; read-out: SK-BR3 LC50): 2.55 µM
- IC (TGI) (SK-BR-3; read-out: SK-BR3 TGI): 0.075 µM
- GI50 (HeLa-APL; read-out: HELA-APL GI50): 0.061 µM
- CC50 (HeLa-APL; read-out: HELA-APL LC50): 1.16 µM
- IC (TGI) (HeLa-APL; read-out: HELA-APL TGI): 0.19 µM
- GI50 (DU-145; read-out: DU145 GI50): 0.0468 µM
- CC50 (DU-145; read-out: DU145 LC50): 12.4 µM
- IC (TGI) (DU-145; read-out: DU145 TGI): 0.0888 µM
- GI50 (SK-MEL-28; read-out: MEL-28 GI50): 0.241 µM
- CC50 (SK-MEL-28; read-out: MEL-28 LC50): 0.969 µM
- IC (TGI) (SK-MEL-28; read-out: MEL-28 TGI): 0.469 µM
- GI50 (PANC-1; read-out: PANC-1 GI50): 0.379 µM
- CC50 (PANC-1; read-out: PANC-1 LC50): 12.4 µM
- IC (TGI) (PANC-1; read-out: PANC-1 TGI): 1.27 µM
- GI50 (IGROV-ET; read-out: IGROV-ET GI50): 0.188 µM
- CC50 (IGROV-ET; read-out: IGROV-ET LC50): 0.949 µM
- IC (TGI) (IGROV-ET; read-out: IGROV-ET TGI): 0.422 µM
- GI50 (IGROV-1; read-out: IGROV GI50): 0.0939 µM
- CC50 (IGROV-1; read-out: IGROV LC50): 1.04 µM
- IC (TGI) (IGROV-1; read-out: IGROV TGI): 0.305 µM
- GI50 (LoVo-Dox; read-out: LOVO-DOX GI50): 0.483 µM
- CC50 (LoVo-Dox; read-out: LOVO-DOX LC50): 12.4 µM
- IC (TGI) (LoVo-Dox; read-out: LOVO-DOX TGI): 2.26 µM
- GI50 (HeLa; read-out: HELA GI50): 0.0394 µM
- CC50 (HeLa; read-out: HELA LC50): 0.165 µM
- IC (TGI) (HeLa; read-out: HELA TGI): 0.0708 µM
- GI50 (LNCaP; read-out: LNCAP GI50): 0.0299 µM
- CC50 (LNCaP; read-out: LNCAP LC50): 0.24 µM
- IC (TGI) (LNCaP; read-out: LNCAP TGI): 0.0716 µM
- GI50 (K-562; read-out: K562 GI50): 0.0264 µM
- CC50 (K-562; read-out: K562 LC50): 12.4 µM
- IC (TGI) (K-562; read-out: K562 TGI): 0.0942 µM
- GI50 (A-549; read-out: A549 GI50): 0.216 µM
- CC50 (A-549; read-out: A549 LC50): 1.24 µM
- IC (TGI) (A-549; read-out: A549 TGI): 0.517 µM
- GI50 (LoVo; read-out: LOVO GI50): 0.139 µM
- CC50 (LoVo; read-out: LOVO LC50): 0.581 µM
- IC (TGI) (LoVo; read-out: LOVO TGI): 0.285 µM
- GI50 (HT-29; read-out: HT29 GI50): 0.297 µM
- CC50 (HT-29; read-out: HT29 LC50): 12.4 µM
- IC (TGI) (HT-29; read-out: HT29 TGI): 1.54 µM
